We go through 9 molecules from EP4678638A1, “NEW E3 UBIQUITIN LIGASE LIGAND, PROTEIN DEGRADATION AGENT AND USE THEREOF” (priority 2023, dated 2024).

Each structure is given as a SMILES string.

The target in assay [1] is T1, RSK2 (Homo sapiens, UniProt P51812).
T1 construct: evaluate the effects of the compounds of the present disclosure on the expression of target proteins in cells; endogenous in cells; host or cells: hPBMC
The assay is described as follows: Western blot degradation of RSK2 (hPBMC). It is filed as cell-based. The following applies: Table D8. An outline of the steps:
(§1)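 After compound exposure, cells were harvested and lysates run on SDS-PAGE, transferred to nitrocellulose and probed with antibodies. Remaining target (%) was computed from band grayscale relative to an internal control protein and normalised; degradation (%) was 100% minus that.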
(In general: In western blotting, separated proteins are transferred to a membrane and probed.)

For assay [2], the target named is T2, RSK1 (Homo sapiens, UniProt Q15418).
T2 construct: evaluate the effects of the compounds of the present disclosure on the expression of target proteins in cells; endogenous in cells; host or cells: hPBMC
Put plainly: Western blot degradation of RSK1 (hPBMC). It is filed as cell-based. The conditions noted are these: Table D8. An outline of the steps:
as §1

Assay [3] has as its target T3, human Cereblon WT GST-tagged protein (Homo sapiens, UniProt Q96SW2).
T3 construct: purchased CISBIO 64BDCRBNPEH
The assay is described as follows: CRBN binding, HTRF (CEREBLON BINDING kit). The conditions noted are these: Table II-2, CRBN binding screening, HTRF; for inhibition at 0.5 µM: read-out: Inhibition rate (%) at 0.5µM; for inhibition at 2 µM: read-out: Inhibition rate (%) at 2 µM. In a few lines:
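After 3 h at room temperature, emission at 665 and 620 nm was measured in a homogeneous time-resolved fluorescence format. Compounds competed with a Thalidomide-Re probe for GST-tagged wild-type human CRBN, which was labelled with a Eu anti-GST antibody.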
On the technique in general: Time-resolved FRET reads energy transfer from a long-lived donor to a nearby acceptor.

T1 sequence (P51812 whole entry): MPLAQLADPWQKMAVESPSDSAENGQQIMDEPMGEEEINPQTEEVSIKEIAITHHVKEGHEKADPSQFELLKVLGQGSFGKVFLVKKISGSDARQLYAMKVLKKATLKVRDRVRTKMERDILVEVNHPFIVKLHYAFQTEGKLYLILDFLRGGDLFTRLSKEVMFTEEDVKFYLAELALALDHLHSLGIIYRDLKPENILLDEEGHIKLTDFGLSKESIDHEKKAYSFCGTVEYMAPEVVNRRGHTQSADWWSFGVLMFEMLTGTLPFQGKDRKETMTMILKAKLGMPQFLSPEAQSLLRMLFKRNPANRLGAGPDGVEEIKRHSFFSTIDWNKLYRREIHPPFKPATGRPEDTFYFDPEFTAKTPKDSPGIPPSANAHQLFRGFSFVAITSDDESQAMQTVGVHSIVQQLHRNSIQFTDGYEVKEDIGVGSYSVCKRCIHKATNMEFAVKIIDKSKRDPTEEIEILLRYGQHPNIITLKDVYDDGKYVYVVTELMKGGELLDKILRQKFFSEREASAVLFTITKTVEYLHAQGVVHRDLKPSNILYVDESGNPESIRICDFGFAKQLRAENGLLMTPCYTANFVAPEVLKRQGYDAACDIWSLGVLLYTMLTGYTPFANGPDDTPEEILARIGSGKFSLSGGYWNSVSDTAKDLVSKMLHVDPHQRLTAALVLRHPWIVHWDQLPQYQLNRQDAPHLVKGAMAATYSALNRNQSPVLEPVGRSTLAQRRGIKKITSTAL
T3 sequence (Q96SW2 whole entry): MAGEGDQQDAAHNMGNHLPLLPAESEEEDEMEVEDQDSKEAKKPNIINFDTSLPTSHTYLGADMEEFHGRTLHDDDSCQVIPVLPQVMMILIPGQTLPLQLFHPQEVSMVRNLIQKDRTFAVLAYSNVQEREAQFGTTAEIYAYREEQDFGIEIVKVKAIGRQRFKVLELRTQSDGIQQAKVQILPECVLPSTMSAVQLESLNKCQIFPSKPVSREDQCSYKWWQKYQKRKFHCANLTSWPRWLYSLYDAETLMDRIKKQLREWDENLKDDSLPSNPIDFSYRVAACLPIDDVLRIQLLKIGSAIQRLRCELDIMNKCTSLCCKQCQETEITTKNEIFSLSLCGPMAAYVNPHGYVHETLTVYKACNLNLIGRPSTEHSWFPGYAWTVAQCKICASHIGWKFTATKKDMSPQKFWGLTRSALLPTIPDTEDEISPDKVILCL
T2 sequence (Q15418 whole entry): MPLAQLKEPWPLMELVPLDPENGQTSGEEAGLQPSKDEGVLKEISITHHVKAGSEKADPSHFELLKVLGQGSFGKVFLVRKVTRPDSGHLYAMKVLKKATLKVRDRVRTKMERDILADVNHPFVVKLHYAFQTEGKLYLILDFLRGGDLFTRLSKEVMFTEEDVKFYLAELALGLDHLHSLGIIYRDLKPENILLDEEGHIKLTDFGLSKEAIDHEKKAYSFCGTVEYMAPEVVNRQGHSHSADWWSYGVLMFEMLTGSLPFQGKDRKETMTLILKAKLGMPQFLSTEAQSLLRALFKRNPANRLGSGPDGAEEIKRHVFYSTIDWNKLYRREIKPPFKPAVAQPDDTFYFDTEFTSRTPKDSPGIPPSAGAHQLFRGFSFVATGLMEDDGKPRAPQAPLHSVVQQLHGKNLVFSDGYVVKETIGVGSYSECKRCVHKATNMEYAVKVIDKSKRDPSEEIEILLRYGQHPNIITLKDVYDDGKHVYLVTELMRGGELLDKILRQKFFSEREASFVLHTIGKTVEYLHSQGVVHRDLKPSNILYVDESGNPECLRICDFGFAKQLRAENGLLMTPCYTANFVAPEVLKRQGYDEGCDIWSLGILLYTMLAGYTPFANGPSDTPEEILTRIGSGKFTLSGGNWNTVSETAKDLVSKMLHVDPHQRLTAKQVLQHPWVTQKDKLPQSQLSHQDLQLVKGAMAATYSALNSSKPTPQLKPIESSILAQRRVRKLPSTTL

For `C[C@@H]1CNC(=O)c2cc3ccc(C(=O)Nc4cnn(Cc5ccc(N6CCC(N7CCN(Cc8cccc(N9CCC(=O)NC9=O)c8)CC7)CC6)cc5)c4)nc3n21` [GT-07953, (R)-N-(1-(4-(4-(4-(3-(2,4-dioxotetrahydropyrimidin-1(2H)-yl)benzyl)piperazin-1-yl)piperidin-1-yl)benzyl)-1H-pyrazol-4-yl)-9-methyl-6-oxo-6,7,8,9-tetrahydropyrido[3',2':4,5]pyrrolo[1,2-a]pyrazine-2-carboxamide], the “Degradation of substrate protein RSK2 (substrate protein remaining %)” value in assay [1] was “A (A is defined as 0% ≤ substrate protein remaining % ≤ 80%)”. In addition, the “Degradation of substrate protein RSK1 (substrate protein remaining %)” value in assay [2] is on record as “A (A is defined as 0% ≤ substrate protein remaining % ≤ 80%)”. In assay [3], the inhibition at 0.5 µM lay within 20 to 30% and the inhibition at 2 µM is 53 to 60%.

Take `C[C@@H]1CNC(=O)c2cc3ccc(C(=O)Nc4cnn(Cc5ccc(NCc6ccnc(N7CCC(=O)NC7=O)c6)cc5)c4)nc3n21` [GT-07795, (R)-N-(1-(4-(((2-(2,4-dioxotetrahydropyrimidin-1(2H)-yl)pyridin-4-yl)methyl)amino)benzyl)-1H-pyrazol-4-yl)-9-methyl-6-oxo-6,7,8,9-tetrahydropyrido[3',2':4,5]pyrrolo[1,2-a]pyrazine-2-carboxamide]: the “Degradation of substrate protein RSK2 (substrate protein remaining %)” value in assay [1] was “B (B is defined as substrate protein remaining % > 80%)”. The “Degradation of substrate protein RSK1 (substrate protein remaining %)” value in assay [2] was “A (A is defined as 0% ≤ substrate protein remaining % ≤ 80%)”. Also, in assay [3], the inhibition at 0.5 µM was in the range of 30 to 40% and the inhibition at 2 µM is 40 to 53%.

`C[C@@H]1CNC(=O)c2cc3ccc(C(=O)Nc4cnn(Cc5ccc(N6CCN(Cc7ccc(C8CCC(=O)NC8=O)cc7)CC6)cc5)c4)nc3n21` (stereo partly drawn) [GT-07926, (9R)-N-(1-(4-(4-(4-(2,6-dioxopiperidin-3-yl)benzyl)piperazin-1-yl)benzyl)-1H-pyrazol-4-yl)-9-methyl-6-oxo-6,7,8,9-tetrahydropyrido[3',2':4,5]pyrrolo[1,2-a]pyrazine-2-carboxamide]: the “Degradation of substrate protein RSK2 (substrate protein remaining %)” value in assay [1] is recorded as “B (B is defined as substrate protein remaining % > 80%)”. Also, the “Degradation of substrate protein RSK1 (substrate protein remaining %)” value in assay [2] is “A (A is defined as 0% ≤ substrate protein remaining % ≤ 80%)”. In assay [3], the inhibition at 0.5 µM lay within 60 to 80% and the inhibition at 2 µM was 80 to 100%.

`C[C@@H]1CNC(=O)c2cc3ccc(C(=O)Nc4cnn(Cc5ccc(N6CCC(N7CCN(Cc8ccc(N9CCC(=O)NC9=O)cn8)CC7)CC6)cc5)c4)nc3n21` [GT-07954, (R)-N-(1-(4-(4-(4-((5-(2,4-dioxotetrahydropyrimidin-1(2H)-yl)pyridin-2-yl)methyl)piperazin-1-yl)piperidin-1-yl)benzyl)-1H-pyrazol-4-yl)-9-methyl-6-oxo-6,7,8,9-tetrahydropyrido[3',2':4,5]pyrrolo[1,2-a]pyrazine-2-carboxamide]: the “Degradation of substrate protein RSK2 (substrate protein remaining %)” value in assay [1] was “A (A is defined as 0% ≤ substrate protein remaining % ≤ 80%)”. For the same molecule, the “Degradation of substrate protein RSK1 (substrate protein remaining %)” value in assay [2] is reported as “A (A is defined as 0% ≤ substrate protein remaining % ≤ 80%)”. In assay [3], the inhibition at 0.5 µM is 60 to 80% and the inhibition at 2 µM is 80 to 100%.

On to `C[C@@H]1CNC(=O)c2cc3ccc(C(=O)Nc4cnn(Cc5ccc(N6CCC(N(C)Cc7cc(C8CCC(=O)NC8=O)cnc7F)CC6)cc5)c4)nc3n21` (stereo partly drawn) [GT-07946, (9R)-N-(1-(4-(4-(((5-(2,6-dioxopiperidin-3-yl)-2-fluoropyridin-3-yl)methyl)(methyl)amino)piperidin-1-yl)benzyl)-1H-pyrazol-4-yl)-9-methyl-6-oxo-6,7,8,9-tetrahydropyrido[3',2':4,5]py rrolo[1,2-a]pyrazine-2-carboxamide], for which, in assay [1], the “Degradation of substrate protein RSK2 (substrate protein remaining %)” value is recorded as “A (A is defined as 0% ≤ substrate protein remaining % ≤ 80%)”. Further, the “Degradation of substrate protein RSK1 (substrate protein remaining %)” value in assay [2] was “A (A is defined as 0% ≤ substrate protein remaining % ≤ 80%)”. In assay [3], the inhibition at 0.5 µM lay within 30 to 40% and the inhibition at 2 µM is 60 to 80%.

For `C[C@@H]1CNC(=O)c2cc3ccc(C(=O)Nc4cnn(Cc5ccc(N6CCC(N7CCN(Cc8cc(N9CCC(=O)NC9=O)cnc8F)CC7)CC6)cc5)c4)nc3n21` [GT-07962, (R)-N-(1-(4-(4-(4-((5-(2,4-dioxotetrahydropyrimidin-1(2H)-yl)-2-fluoropyridin-3-yl)methyl)piperazin-1-yl)piperidin-1-yl)benzyl)-1H-pyrazol-4-yl)-9-methyl-6-oxo-6,7,8,9-tetrahydropyrido[3',2':4,5]pyrrolo[1,2-a]pyrazine-2-carboxamide], the “Degradation of substrate protein RSK2 (substrate protein remaining %)” value in assay [1] was “A (A is defined as 0% ≤ substrate protein remaining % ≤ 80%)”. Besides, the “Degradation of substrate protein RSK1 (substrate protein remaining %)” value in assay [2] is “A (A is defined as 0% ≤ substrate protein remaining % ≤ 80%)”. Besides, in assay [3], the inhibition at 0.5 µM lay within 20 to 30% and the inhibition at 2 µM lay within 53 to 60%.

`C[C@@H]1CNC(=O)c2cc3ccc(C(=O)Nc4cnn(Cc5ccc(N6CCC(N7CCN(Cc8cc(C9CCC(=O)NC9=O)cnc8F)CC7)CC6)cc5)c4)nc3n21` (stereo partly drawn) [GT-07960, (9R)-N-(1-(4-(4-(4-((5-(2,6-dioxopiperidin-3-yl)-2-fluoropyridin-3-yl)methyl)piperazin-1-yl)piperidin-1-yl)benzyl)-1H-pyrazol-4-yl)-9-methyl-6-oxo-6,7,8,9-tetrahydropyrido[3',2':4,5]pyrrolo[1,2-a]pyrazine-2-carboxamide]: in assay [1], the “Degradation of substrate protein RSK2 (substrate protein remaining %)” value is on record as “B (B is defined as substrate protein remaining % > 80%)”. For the same molecule, in assay [2], the “Degradation of substrate protein RSK1 (substrate protein remaining %)” value was “A (A is defined as 0% ≤ substrate protein remaining % ≤ 80%)”. Moreover, in assay [3], the inhibition at 0.5 µM lay within 30 to 40% and the inhibition at 2 µM was 53 to 60%.

For the molecule `C[C@@H]1CNC(=O)c2cc3ccc(C(=O)Nc4cnn(Cc5ccc(NCc6cncc(N7CCC(=O)NC7=O)c6)cc5)c4)nc3n21` [GT-07796, (R)-N-(1-(4-(((5-(2,4-dioxotetrahydropyrimidin-1(2H)-yl)pyridin-3-yl)methyl)amino)benzyl)-1H-pyrazol-4-yl)-9-methyl-6-oxo-6,7,8,9-tetrahydropyrido[3',2':4,5]pyrrolo[1,2-a]pyrazine-2-carboxamide], the “Degradation of substrate protein RSK2 (substrate protein remaining %)” value in assay [1] was “B (B is defined as substrate protein remaining % > 80%)”. In addition, the “Degradation of substrate protein RSK1 (substrate protein remaining %)” value in assay [2] is listed as “A (A is defined as 0% ≤ substrate protein remaining % ≤ 80%)”. For the same molecule, in assay [3], the inhibition at 0.5 µM lay within 80 to 100% and the inhibition at 2 µM lay in the range of 80 to 100%.

On to `C[C@@H]1CNC(=O)c2cc3ccc(C(=O)Nc4cnn(Cc5ccc(N6CCC(N7CCN(Cc8cncc(C9CCC(=O)NC9=O)c8)CC7)CC6)cc5)c4)nc3n21` (stereo partly drawn) [GT-07961, (9R)-N-(1-(4-(4-(4-((5-(2,6-dioxopiperidin-3-yl)pyridin-3-yl)methyl)piperazin-1-yl)piperidin-1-yl)benzyl)-1H-pyrazol-4-yl)-9-methyl-6-oxo-6,7,8,9-tetrahydropyrido[3',2':4,5]pyrrolo[1,2-a]pyrazine-2-carboxamide], for which, in assay [1], the “Degradation of substrate protein RSK2 (substrate protein remaining %)” value was “A (A is defined as 0% ≤ substrate protein remaining % ≤ 80%)”. In addition, the “Degradation of substrate protein RSK1 (substrate protein remaining %)” value in assay [2] is recorded as “A (A is defined as 0% ≤ substrate protein remaining % ≤ 80%)”. Further, in assay [3], the inhibition at 0.5 µM lay in the range of 20 to 30% and the inhibition at 2 µM fell in the range of 60 to 80%.

What is called inhibition is the change of the read-out against control, counted positive when it falls.
